Key:
Type in all cases: physicochemical
[1] = Compatibility of pitavastatin and coating material: related compounds on storage under severe conditions (HPLC); settings: pitavastatin 0.5 mg with coating material 2.5 mg, vacuum-dried, stored at about 60° C., relative humidity about 85%
Protocol: (§1) To form a pitavastatin-containing drug-coating layer, compatibility of pitavastatin with various coating materials (coating agents and surfactants) were evaluated. About 2.5 mg of each coating material as shown in Table 3 was dissolved in 5 mL of a 75% aqueous ethanol solution, and about 0.5 mg of pitavastatin was added thereto and then completely dissolved. About 0.5 mg of pitavastatin alone was completely dissolved in 5 mL of a 75% aqueous ethanol solution as a control group for the compatibility evaluation. Each of the resulting solutions was vacuum-dried at about 50° C. for about 24 hours to completely remove the solvent, thereby preparing test samples. While each test temple was stored under severe conditions (at a temperature of about 60° C. and a relative humidity of about 85%), a degree of generated related compounds with time was observed. The related compounds were analyzed by HPLC in the following manner.
<Pitavastatin Analysis Method>
(§2) Each test sample was dissolved in 25 mL of methanol, followed by a 2-fold dilution with a mobile phase and filtration through a 0.45-um filter, thereby preparing analysis samples.
Mobile phase; acetonitrile: 0.1% (v/v) aqueous trifluoroacetic acid (TFA) solution=60:40

[2] = Compatibility of rosuvastatin and coating material: related compounds on storage under severe conditions (HPLC); settings: rosuvastatin 0.5 mg with coating material 2.5 mg, vacuum-dried, stored at about 60° C., relative humidity about 85%
Protocol: To form a rosuvastatin-containing drug-coating layer, compatibility of rosuvastatin with various coating materials (coating agents and surfactants) were evaluated. About 2.5 mg of each coating material as shown in Table 1 was dissolved in 5 mL of a 75% aqueous ethanol solution, and about 0.5 mg of rosuvastatin was added thereto and then completely dissolved. About 0.5 mg of rosuvastatin alone was completely dissolved in 5 mL of a 75% aqueous ethanol solution as a control group for the compatibility evaluation. Each of the resulting solutions was vacuum-dried at about 50° C. for about 24 hours to completely remove the solvent, thereby preparing a test sample. While each test temple was stored under severe conditions (at a temperature of about 60° C. and a relative humidity of about 85%), a degree of generation of related compounds with time was observed. The related compounds were analyzed by high-performance liquid chromatography (HPLC) in the following manner.
<Rosuvastatin Analysis Method>
The test sample was dissolved in 25 mL of methanol, followed by a 2-fold dilution with a mobile phase and filtration through a 0.45-um filter, thereby preparing an analysis sample.
Mobile phase; Acetonitrile: 0.5% (v/v) aqueous formic acid solution=50:50

[3] = Compatibility of atorvastatin and coating material: related compounds on storage under severe conditions (HPLC); settings: atorvastatin 0.5 mg with coating material 2.5 mg, vacuum-dried, stored at about 60° C., relative humidity about 85%
Protocol: as §1, with “an atorvastatin-containing” for “a pitavastatin-containing”, “atorvastatin” for “pitavastatin”, “2” for “3”, “atorvastatin” for “pitavastatin alone”, “generation of” for “generated”
<Atorvastatin Analysis Method>
as §2
Mobile phase; acetonitrile: 0.5% (v/v) aqueous formic acid solution=50:50

O=C(O)C[C@H](O)C[C@H](O)/C=C/c1c(C2CC2)nc2ccccc2c1-c1ccc(F)cc1 [Pitavastatin]
Related compound (%, 1st week) [1]: 0.1%
Related compound (%, 1st week) ([1]; listed as pitavastatin): About 0.1%
Related compound (%, 3rd week) [1]: 0.2%
Related compound (%, 3rd week) ([1]; listed as pitavastatin): about 0.2%

CC(C)c1nc(N(C)S(C)(=O)=O)nc(-c2ccc(F)cc2)c1/C=C/[C@@H](O)C[C@@H](O)CC(=O)O [Rosuvastatin]
Related compound (%, 1st week) [2]: 1.4%
Related compound (%, 1st week) ([2]; listed as rosuvastatin): About 1.4%
Related compound (%, 3rd week) [2]: 5.2%
Related compound (%, 3rd week) ([2]; listed as rosuvastatin): about 5.4%

CC(C)c1c(C(=O)Nc2ccccc2)c(-c2ccccc2)c(-c2ccc(F)cc2)n1CC[C@@H](O)C[C@@H](O)CC(=O)O [Atorvastatin]
Related compound (%, 1st week) [3]: 0.3%
Related compound (%, 1st week) ([3]; listed as atorvastatin): About 0.3%
Related compound (%, 3rd week) [3]: 3.3%
Related compound (%, 3rd week) ([3]; listed as atorvastatin): about 3.3%
